Columns and labels:
PxOctβ3 [1] = target: T1, PxOctβ3 (Plutella xylostella, UniProt Z9TZ33AL48); assay: intracellular cAMP assay, HEK-293 cells stably expressing the receptor; assay type: cell-based
T1 construct: pcDNA3.1-PxOctβ3 stably expressed in HEK-293 cells; ORF also cloned in pEGFP-N1

PxOctβ3 [2] = target: T1, PxOctβ3; assay: as above; assay type: cell-based; settings: agonist; 1 nM-100 μM; b43 prints approximately 65 nM

| Compound | fold cAMP at 10 μM (PxOctβ3 [1]; weak agonist) | fold cAMP at 10 μM (PxOctβ3 [1]; agonist) [fold] | also measured |
| --- | --- | --- | --- |
| NCCc1ccccc1 [2-phenylethylamine] | clonidine, amitraz, and 2-phenylethylamine were barely effective agonists | – | – |
| NCCc1ccc(O)c(O)c1 [dopamine] | – | 2.3 | – |
| Clc1cccc(Cl)c1NC1=NCCN1 [clonidine] | clonidine, amitraz, and 2-phenylethylamine were barely effective agonists | – | – |
| NC[C@H](O)c1ccc(O)cc1 [octopamine] | – | – | EC50 (PxOctβ3 [2]): 65 nM |
| NCCc1ccc(O)cc1 [tyramine] | – | 9.6 | – |
| Cc1ccc(/N=C/N(C)/C=N/c2ccc(C)cc2C)c(C)c1 [amitraz] | clonidine, amitraz, and 2-phenylethylamine were barely effective agonists | – | – |

— publication PMC9409995, “Pharmacological Properties and Function of the PxOctβ3 Octopamine Receptor in Plutella xylostella (L.)” (Insects, 2022)
